14 compounds from patent publication US20250100996A1, “HETEROCYCLOALKYL AND HETEROARYL COMPOUNDS AND PHARMACEUTICAL COMPOSITIONS THAT MODULATE IKZF2” (Plexium, Inc., priority 2021, published 2025) can be followed below.

Where only a bound is given, the exact number is not on record here.

One test concerns the target T1, IKZF2 (Helios) (Homo sapiens, UniProt Q96SW2+Q9UKS7).
T1 construct: Leu-Asp junction (codons ctcgac before the linker); mScarlet (behind P2A) (C, cleaved yes); expressed in transfected cells
In words: IKZF2 reporter degradation assay (HEK 293T IKZF2-mNeonGreen reporter cell line). Type of test: cell-based. The note with it: HEK-293T, 24 h, @ 1 μM, HEK 293T IKZF2-mNeonGreen reporter, 24 hours incubation. In outline: (§1)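 Clonal HEK 293T lines stably expressing the IKZF-(GGGGS)3-mNeonGreen-P2A-mScarlet reporter were treated with compound for 24 h at 37 °C (≤0.5% DMSO, quadruplicate). Live imaging scored percent mNeonGreen-positive cells, with mScarlet used for segmentation. DC50 came from four-parameter logistic fits.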

The next test has as its target T2, IKZF3 (Aiolos) (Homo sapiens, UniProt Q9UKT9).
T2 construct: Leu-Asp junction (codons ctcgac before the linker); mScarlet (behind P2A) (C, cleaved yes); expressed in transfected cells
In words: IKZF3 reporter degradation assay (HEK 293T IKZF3-mNeonGreen reporter cell line). It is filed as cell-based. The note with it: HEK 293T IKZF3-mNeonGreen reporter, 24 hours incubation; for inhibition at 1 µM: HEK-293T, 24 h. In outline:
as §1

For test [1], the target named is T3, human E3 ligase component cereblon (CRBN) (Homo sapiens, UniProt Q96SW2).
T3 construct: host or cells: HEK293T
T3 sequence (Q96SW2 whole entry): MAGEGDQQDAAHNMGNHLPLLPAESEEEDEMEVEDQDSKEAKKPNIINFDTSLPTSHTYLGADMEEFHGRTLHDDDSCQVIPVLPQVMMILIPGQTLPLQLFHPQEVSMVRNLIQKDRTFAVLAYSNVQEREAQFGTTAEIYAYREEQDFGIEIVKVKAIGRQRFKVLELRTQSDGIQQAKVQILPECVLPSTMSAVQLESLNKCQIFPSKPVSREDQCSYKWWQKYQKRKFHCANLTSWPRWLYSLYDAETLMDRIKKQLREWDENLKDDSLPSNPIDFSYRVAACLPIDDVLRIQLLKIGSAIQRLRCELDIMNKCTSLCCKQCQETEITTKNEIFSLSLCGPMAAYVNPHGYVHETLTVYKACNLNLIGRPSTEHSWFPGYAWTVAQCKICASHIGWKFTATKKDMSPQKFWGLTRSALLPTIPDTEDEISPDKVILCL
T3 sequence (Q16531 whole entry partner): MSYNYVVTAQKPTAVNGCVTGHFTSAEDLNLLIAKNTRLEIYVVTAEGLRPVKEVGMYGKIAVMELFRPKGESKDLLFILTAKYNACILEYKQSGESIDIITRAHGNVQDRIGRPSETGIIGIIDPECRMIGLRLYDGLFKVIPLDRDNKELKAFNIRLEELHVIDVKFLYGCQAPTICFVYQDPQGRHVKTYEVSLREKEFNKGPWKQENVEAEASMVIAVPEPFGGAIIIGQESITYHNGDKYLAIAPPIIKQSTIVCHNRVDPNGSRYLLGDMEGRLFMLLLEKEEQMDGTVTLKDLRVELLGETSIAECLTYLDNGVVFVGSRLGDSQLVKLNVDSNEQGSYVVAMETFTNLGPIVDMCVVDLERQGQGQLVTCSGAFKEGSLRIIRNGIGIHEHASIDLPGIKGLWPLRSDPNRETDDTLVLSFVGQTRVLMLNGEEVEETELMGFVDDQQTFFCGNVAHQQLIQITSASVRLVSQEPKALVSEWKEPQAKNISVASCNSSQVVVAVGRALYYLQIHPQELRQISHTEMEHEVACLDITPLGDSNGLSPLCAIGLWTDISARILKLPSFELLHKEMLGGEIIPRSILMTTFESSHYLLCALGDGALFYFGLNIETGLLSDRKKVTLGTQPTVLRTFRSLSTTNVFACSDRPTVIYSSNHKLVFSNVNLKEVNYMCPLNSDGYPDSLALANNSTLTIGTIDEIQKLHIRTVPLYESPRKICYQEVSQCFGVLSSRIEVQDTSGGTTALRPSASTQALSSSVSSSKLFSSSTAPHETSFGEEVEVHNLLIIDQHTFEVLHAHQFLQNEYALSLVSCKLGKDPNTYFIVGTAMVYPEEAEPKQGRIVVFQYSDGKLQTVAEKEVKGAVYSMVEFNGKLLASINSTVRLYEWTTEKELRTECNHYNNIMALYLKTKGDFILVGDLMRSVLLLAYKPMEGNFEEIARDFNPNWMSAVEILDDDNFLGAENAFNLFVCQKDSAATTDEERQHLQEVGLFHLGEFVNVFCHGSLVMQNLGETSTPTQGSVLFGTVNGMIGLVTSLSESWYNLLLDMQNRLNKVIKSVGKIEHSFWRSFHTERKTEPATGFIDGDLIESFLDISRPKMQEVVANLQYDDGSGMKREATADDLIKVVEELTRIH
As to the kind of experiment: Cereblon (CRBN) target engagement, NanoBRET TE Intracellular E3 Ligase Assay in transfected HEK-293T cells. The note with it: read-out: CRBN Binding EC50. In outline: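 HEK-293T cells transiently co-transfected with NanoLuc-CRBN (N-terminal NanoLuc) and DDB1 were dosed with CRBN tracer and an 11-point compound series (typically 10 μM to 100 pM) for 2 h at 37° C. BRET at 450/610 nm gave IC50 by four-parameter logistic fit.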

T1 sequence (Q9UKS7 whole entry): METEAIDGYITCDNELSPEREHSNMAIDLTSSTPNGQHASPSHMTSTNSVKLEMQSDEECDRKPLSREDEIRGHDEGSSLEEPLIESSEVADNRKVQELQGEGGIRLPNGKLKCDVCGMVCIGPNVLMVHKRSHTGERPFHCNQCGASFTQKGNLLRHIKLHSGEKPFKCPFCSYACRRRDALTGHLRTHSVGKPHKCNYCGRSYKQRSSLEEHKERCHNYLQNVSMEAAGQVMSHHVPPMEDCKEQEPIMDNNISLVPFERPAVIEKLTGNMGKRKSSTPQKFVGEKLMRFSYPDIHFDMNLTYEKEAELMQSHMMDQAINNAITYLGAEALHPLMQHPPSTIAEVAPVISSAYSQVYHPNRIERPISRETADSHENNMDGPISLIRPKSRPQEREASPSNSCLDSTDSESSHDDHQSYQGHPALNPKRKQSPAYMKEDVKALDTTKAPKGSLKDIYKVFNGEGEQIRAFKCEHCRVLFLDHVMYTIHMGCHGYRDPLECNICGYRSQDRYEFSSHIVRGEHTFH
T1 sequence (Q96SW2 whole entry): as the sequence (Q96SW2 whole entry) above
T1 sequence (Q16531 whole entry partner): as the sequence (Q16531 whole entry partner) above
T2 sequence (Q96SW2 whole entry partner): as the sequence (Q96SW2 whole entry) above
T2 sequence (Q16531 whole entry partner): as the sequence (Q16531 whole entry partner) above
T2 sequence (Q9UKT9 whole entry): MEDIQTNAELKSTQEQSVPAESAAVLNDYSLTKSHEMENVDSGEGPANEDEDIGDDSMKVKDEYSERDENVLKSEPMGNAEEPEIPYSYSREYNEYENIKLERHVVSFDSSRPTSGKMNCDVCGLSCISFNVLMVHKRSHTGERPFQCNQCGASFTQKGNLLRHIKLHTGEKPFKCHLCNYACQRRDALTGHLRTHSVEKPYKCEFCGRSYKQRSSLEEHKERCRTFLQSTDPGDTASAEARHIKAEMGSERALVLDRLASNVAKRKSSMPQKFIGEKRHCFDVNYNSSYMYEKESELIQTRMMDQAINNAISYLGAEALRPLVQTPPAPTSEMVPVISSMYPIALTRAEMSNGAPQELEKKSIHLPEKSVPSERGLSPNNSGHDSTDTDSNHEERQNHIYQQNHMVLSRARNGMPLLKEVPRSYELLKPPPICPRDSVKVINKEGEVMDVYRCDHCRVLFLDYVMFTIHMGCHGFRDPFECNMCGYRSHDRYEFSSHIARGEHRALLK

On to `O=C1CCC(N2Cc3cc(O[C@H]4CCCC[C@@H]4N4CC(C5CCOC5)C4)ccc3C2=O)C(=O)N1` (stereo partly drawn) [Compound 14-A, 3-(1-oxo-5-(((1S,2S)-2-(3-(tetrahydrofuran-3-yl)azetidin-1-yl)cyclohexyl)oxy)isoindolin-2-yl)piperidine-2,6-dione], for which the inhibition at 1 µM at IKZF2 (Helios) was found to be 67.4%. At IKZF3 (Aiolos), this compound came in with a DC50 above 30000 nM. Further, the concentration giving a half-maximal response (EC50) in test [1] was found to be 39 nM.
On to `N#CC1(C(=O)N2CCC(C3CN([C@H]4CCCC[C@@H]4Oc4ccc5c(c4)CN(C4CCC(=O)NC4=O)C5=O)C3)CC2)CC1` (stereo partly drawn) [Compound 27-A, 1-(4-(1-((1S,2S)-2-((2-(2,6-dioxopiperidin-3-yl)-1-oxoisoindolin-5-yl)oxy)cyclohexyl)azetidin-3-yl)piperidine-1-carbonyl)cyclopropane-1-carbonitrile], for which the inhibition at 1 µM at IKZF2 (Helios) is 84.6%. At IKZF3 (Aiolos), this compound had a DC50 of 110 nM and an inhibition at 1 µM of 44%. For the same compound, the concentration for a half-maximal effect (EC50) in test [1] came out at 10 nM.
As for `CC12CC(C(=O)N3CCC(C4CN([C@H]5CCCC[C@@H]5Oc5ccc6c(c5)CN(C5CCC(=O)NC5=O)C6=O)C4)CC3)(C1)C2` (stereo partly drawn) [Compound 28-A, 3-(5-(((1S,2S)-2-(3-(1-(3-methylbicyclo[1.1.1]pentane-1-carbonyl)piperidin-4-yl)azetidin-1-yl)cyclohexyl)oxy)-1-oxoisoindolin-2-yl)piperidine-2,6-dione], the inhibition at 1 µM against IKZF2 (Helios) worked out at 82.5%; against IKZF3 (Aiolos) it was 67.5%. The same compound showed a DC50 at IKZF3 (Aiolos) of 13 nM. Moreover, the EC50 in test [1] is 3 nM.
Consider `CC1(C(=O)N2CCC(C3CN([C@H]4CCCC[C@@H]4Oc4ccc5c(c4)CN(C4CCC(=O)NC4=O)C5=O)C3)CC2)COC1` (stereo partly drawn) [Compound 29-A, 3-(5-(((1S,2S)-2-(3-(1-(3-methyloxetane-3-carbonyl)piperidin-4-yl)azetidin-1-yl)cyclohexyl)oxy)-1-oxoisoindolin-2-yl)piperidine-2,6-dione], for which, at IKZF2 (Helios), the inhibition at 1 µM came out at 83.2%. Moreover, the DC50 at IKZF3 (Aiolos) was above 30000 nM. For the same compound, the EC50 in test [1] was 67 nM.
At IKZF2 (Helios), `N#CC1(C(=O)N2CCC(C3CN([C@H]4CCCC[C@@H]4Oc4ccc5c(c4)CN(C4CCC(=O)NC4=O)C5=O)C3)CC2)CCC1` (stereo partly drawn) [Compound 30-A, 1-(4-(1-((1S,2S)-2-((2-(2,6-dioxopiperidin-3-yl)-1-oxoisoindolin-5-yl)oxy)cyclohexyl)azetidin-3-yl)piperidine-1-carbonyl)cyclobutane-1-carbonitrile] showed an inhibition at 1 µM of 84.4%. Besides, on IKZF3 (Aiolos), it took 14 nM to reach half-maximal degradation (DC50) and the inhibition at 1 µM was determined as 63.4%. In addition, the EC50 in test [1] came out at 4 nM.
In the same order, the values of `CC1(C(=O)N2CCC(C3CN([C@H]4CCCC[C@@H]4Oc4ccc5c(c4)CN(C4CCC(=O)NC4=O)C5=O)C3)CC2)CC1` (stereo partly drawn) [Compound 31-A, 3-(5-(((1S,2S)-2-(3-(1-(1-methylcyclopropane-1-carbonyl)piperidin-4-yl)azetidin-1-yl)cyclohexyl)oxy)-1-oxoisoindolin-2-yl)piperidine-2,6-dione] are 88.2%, 61 nM, 26.2% and 6 nM.
Regarding `O=C1CCC(N2Cc3cc(O[C@H]4CCCC[C@@H]4N4CC(C5CCN(C(=O)C6CC(F)(F)C6)CC5)C4)ccc3C2=O)C(=O)N1` (stereo partly drawn) [Compound 32-A, 3-(5-(((1S,2S)-2-(3-(1-(3,3-difluorocyclobutane-1-carbonyl)piperidin-4-yl)azetidin-1-yl)cyclohexyl)oxy)-1-oxoisoindolin-2-yl)piperidine-2,6-dione], at IKZF2 (Helios), at 1 µM the inhibition was 84.7%. On IKZF3 (Aiolos), the DC50 is 71 nM and the inhibition at 1 µM was 24.1%. In addition, the EC50 in test [1] is 5 nM.
As to `CC1(C(=O)N2CCC(C3CN([C@H]4CCCC[C@@H]4Oc4ccc5c(c4)CN(C4CCC(=O)NC4=O)C5=O)C3)CC2)CCCC1` (stereo partly drawn) [Compound 33-A, 3-(5-(((1S,2S)-2-(3-(1-(1-methylcyclopentane-1-carbonyl)piperidin-4-yl)azetidin-1-yl)cyclohexyl)oxy)-1-oxoisoindolin-2-yl)piperidine-2,6-dione], testing at 1 µM at IKZF2 (Helios) gave an inhibition of 88.4%. Also, on IKZF3 (Aiolos), the 50% degradation concentration (DC50) stood at 6 nM and 1 µM produced 60.8% inhibition. Moreover, the EC50 in test [1] amounted to 7 nM.
The compound `O=C1CCC(N2Cc3cc(O[C@H]4CCCC[C@@H]4N4CC(C5CCN(C(=O)CC6CC6)CC5)C4)ccc3C2=O)C(=O)N1` (stereo partly drawn) [Compound 34-A, 3-(5-(((1S,2S)-2-(3-(1-(2-cyclopropylacetyl)piperidin-4-yl)azetidin-1-yl)cyclohexyl)oxy)-1-oxoisoindolin-2-yl)piperidine-2,6-dione] displayed an inhibition at 1 µM at IKZF2 (Helios) of 88%. On IKZF3 (Aiolos), it took 544 nM to reach half-maximal degradation (DC50) and at 1 µM the inhibition was 24.9%. Moreover, in test [1], the EC50 amounted to 10 nM.
`CC1CC1C(=O)N1CCC(C2CN([C@H]3CCCC[C@@H]3Oc3ccc4c(c3)CN(C3CCC(=O)NC3=O)C4=O)C2)CC1` (stereo partly drawn) [Compound 35-A, 3-(5-(((1S,2S)-2-(3-(1-(2-methylcyclopropane-1-carbonyl)piperidin-4-yl)azetidin-1-yl)cyclohexyl)oxy)-1-oxoisoindolin-2-yl)piperidine-2,6-dione] showed an inhibition at 1 µM on IKZF2 (Helios) of 88.2%. Moreover, on IKZF3 (Aiolos), the DC50 is 8070 nM and the inhibition at 1 µM worked out at 23.5%. In addition, the EC50 in test [1] was 8 nM.
With `O=C1CCC(N2Cc3cc(O[C@H]4CCCC[C@@H]4N4CC(C5CCN(C(=O)C6(F)CC6)CC5)C4)ccc3C2=O)C(=O)N1` (stereo partly drawn) [Compound 42-A, 3-(5-(((1S,2S)-2-(3-(1-(1-fluorocyclopropane-1-carbonyl)piperidin-4-yl)azetidin-1-yl)cyclohexyl)oxy)-1-oxoisoindolin-2-yl)piperidine-2,6-dione], testing at 1 µM at IKZF2 (Helios) gave an inhibition of 87.3%. At IKZF3 (Aiolos), this compound showed a DC50 of 21 nM and an inhibition at 1 µM of 31%. In addition, the EC50 in test [1] turned out to be 3 nM.
`O=C1CCC(N2Cc3cc(O[C@H]4CCCC[C@@H]4N4CC(C5CCOCC5F)C4)ccc3C2=O)C(=O)N1` (stereo partly drawn) [Compound 55-A, 3-(5-(((1S,2S)-2-(3-(3-fluorotetrahydro-2H-pyran-4-yl)azetidin-1-yl)cyclohexyl)oxy)-1-oxoisoindolin-2-yl)piperidine-2,6-dione] gave an inhibition at 1 µM against IKZF2 (Helios) of 83.8%. The same compound yielded a DC50 at IKZF3 (Aiolos) above 30000 nM. Moreover, the concentration giving a half-maximal response (EC50) in test [1] turned out to be 14 nM.
The corresponding values for `O=C1CCC(N2Cc3cc(O[C@H]4CCCC[C@@H]4N4CC(C5CCN(S(=O)(=O)C6CCC6)CC5)C4)ccc3C2=O)C(=O)N1` (stereo partly drawn) [Compound 57-A, 3-(5-(((1S,2S)-2-(3-(1-(cyclobutylsulfonyl)piperidin-4-yl)azetidin-1-yl)cyclohexyl)oxy)-1-oxoisoindolin-2-yl)piperidine-2,6-dione] are 85.4%, above 30000 nM and 3 nM.
On IKZF2 (Helios), `O=C1CCC(N2Cc3cc(O[C@H]4CCCC[C@@H]4N4CC(c5ccc6cccnc6c5)C4)ccc3C2=O)C(=O)N1` (stereo partly drawn) [Compound 87-B, 3-(1-oxo-5-(((1S,2S)-2-(3-(quinolin-7-yl)azetidin-1-yl)cyclohexyl)oxy)isoindolin-2-yl)piperidine-2,6-dione] returned an inhibition at 1 µM of 87.5%. Further, the DC50 on IKZF3 (Aiolos) is above 30000 nM. Further, the EC50 in test [1] is 3 nM.

What is called inhibition is how much of the control response was suppressed. What is called DC50 is the concentration giving 50% degradation. Higher therefore signals degradation only at high concentration. Usually EC50 stands for the concentration needed to bring the measured effect to its halfway point.
